The source of these data is article PMC12040169 (PLOS Biology, 2025).

The nature of this data set: in vitro. The settings on record: human, hela cells, % viability.

Turning to `COC1C(O)C(CO)OC1n1cc(I)c(N)nc1=O` (centres unmarked) [CBK201296], the viability (usually a read-out of living cells in per cent, often relative to untreated cells) at 28.5 h, 10 µM turned out to be 92.2%. The figure for `CNC(=O)C1(Cc2ccc(-c3cccc(C)c3)cc2)CCN(C(=O)C(C)(C)C)CC1` [CBK285755] is 98.6%; for `CN1CCN(S(=O)(=O)c2cccc3nsnc23)CC1` [CBK062428] it is 102%. The figure for `CN1CCN(c2ccc(NS(=O)(=O)c3ccc(Cl)cc3)cc2)CC1` [CBK076932] is 97.9%; for `CN1CCN(c2nc3c(N)ncn(CC(O)CO)c-3n2)CC1` (centres unmarked) [CBK262571] it is 108%; for `Cn1c(=O)c2c(-c3ccccc3)onc2n(C)c1=O` [CBK023569] it is 85%. To `Cc1cc(C)c(NC(=O)CSc2ncccc2-c2nc(C)no2)c(C)c1` [CBK287821] belongs 86.7%; to `COCCn1ccnc1C1CCN(C(=O)COc2cccc(F)c2)CC1` [CBK307362], 91.3%; to `CCOC(=O)C(NCc1nc(-c2cccc(C(F)(F)F)c2)no1)C(C)C` (centres unmarked) [CBK305445], 93%. In the case of `O=C(OCc1ccccc1)N1CCN(C(=O)c2cc3cc(Br)ccc3[nH]2)CC1` [CBK154991], the viability at 28.5 h, 10 µM amounted to 97.5%. The figure for `COc1ccc(S(=O)(=O)N(CCc2ccccc2)CC(=O)O)cc1C` [CBK268505] is 95%; for `O=c1n(-c2cccc(C(F)(F)F)c2)ccn1S(=O)(=O)c1ccc(Cl)c(Cl)c1` [CBK106579] it is 96.7%; for `CS(=O)(=O)N1CCC2(CC1)Cn1c(cc3ccccc31)C(=O)O2` [CBK282820] it is 87.1%. The figure for `Cc1ccc(NC(=O)CCN2C(=O)c3cccc([N+](=O)[O-])c3C2=O)c(Br)c1` [CBK263172] is 98%; for `O=C(O)CCc1nc2[nH]c(C(F)F)cc(=O)n2n1` [CBK286880] it is 98.6%. Turning to `COc1ccc(CN2CCN(c3ccccn3)CC2)cc1OCc1ccccc1` [CBK261889], the viability at 28.5 h, 10 µM was 84.9%. To `CCOC(=O)NC(=O)C(C#N)/C=N/NC(=O)CCCNc1ncc(C(F)(F)F)cc1Cl` (centres unmarked) [CBK008354] belongs 101%; to `COc1ccccc1NC(=O)c1c(NC(=O)c2cccs2)sc2c1CCC(C(C)(C)C)C2` (centres unmarked) [CBK264123], 100%. The figure for `CC1CCCCN1S(=O)(=O)c1ccc(NC(=O)CCn2cnc3ccccc3c2=O)cc1` (centres unmarked) [CBK268495] is 95.5%. To `Cc1cc(Cc2cccc(Cl)c2)cc(C2CCCN(C(=O)CN3CCCC3=O)C2)n1` (centres unmarked) [CBK286103] belongs 94%; to `Cc1ccc(C(=O)NCCC(=O)Nc2ccccn2)cc1NC(=O)c1ccco1` [CBK298328], 92.2%.

For the compound `CN1CCN(Cc2c(O)ccc3cc(-c4ccc(F)cc4)c(=O)oc23)CC1` [CBK267976], the viability at 28.5 h, 10 µM worked out at 111%. To `O=C(O)C1CCN(C(=O)NCc2ccc(F)cc2)CC1` [CBK156070] belongs 117%. The figure for `NC(=O)COc1ccc(CNc2ccc(Oc3ccccc3)cc2)cc1Cl` [CBK269584] is 89.4%; for `O=C(NCCCN1CCCC(O)C1)N1CCCN(Cc2cccs2)CC1` (centres unmarked) [CBK307116] it is 82%; for `COc1ccc(OC)c(C(=O)N2CCNC(=O)C2Cc2ccc(-c3cccs3)cc2)c1` (centres unmarked) [CBK285803] it is 111%. To `Cc1noc2nc(C3CCN(C(=O)C4CC4C)CC3)cc(C(F)F)c12` (centres unmarked) [CBK285307] belongs 93%. Turning to `O=S(=O)(Cc1csc(N2CCOCC2)n1)c1ccccn1` [CBK011137], the viability at 28.5 h, 10 µM stood at 90.1%. The figure for `O=C(O)CC1CCN(c2ccc(C(F)(F)F)cn2)CC1` [CBK286850] is 90.4%; for `O=C(COc1cc(C(=O)O)nc2ccccc12)NCc1ccc(Cl)cc1` [CBK287247] it is 92%; for `CN1CCN(C)C(COc2ccc(C(F)(F)F)cn2)C1` (centres unmarked) [CBK113288] it is 96.8%. The figure for `COCc1nc(C)c(C(=O)NC2CCCN(c3ccn(C)n3)C2=O)s1` (centres unmarked) [CBK306497] is 92.2%; for `COc1ccccc1C1OC(=O)C[C@@H]1C(=O)Nc1cc(C(C)(C)C)on1` (some centres unmarked) [CBK021439] it is 110%; for `CC(C)(C)c1ccc(N(C2CCNCC2)S(=O)(=O)c2ccc(Cl)cc2Cl)cc1` [CBK165067T] it is 51%. The figure for `COc1ccc(Br)cc1/C=N/Nc1nc(NCc2ccccc2)nc(N2CCOCC2)n1` [CBK261232] is 92.9%; for `O=C(NCCn1nc2c(cc1=O)CCCCC2)c1cccs1` [CBK283277] it is 100%. With `COc1cccc(CN2CCC(Cc3ccccc3)CC2)c1` [CBK126436], the viability at 28.5 h, 10 µM came out at 103%. To `Cc1ccc(CSCc2nc3ccccc3[nH]2)cc1` [CBK265238] belongs 90%; to `Clc1ccc(-c2nc(-c3ccncc3)no2)c(Cl)c1` [CBK262615], 83.6%; to `N#Cc1cccc(-n2cc(-c3ccc(Br)cc3F)nn2)c1` [CBK113143], 95.4%.

Take `CC(C)Nc1cncc(OCCN2CCNCC2)n1` [CBK115601]: the viability at 28.5 h, 10 µM was 93.6%.

As for `Cc1cc(N2CCCC(COc3ccccc3F)C2)nc(N)n1` (centres unmarked) [CBK306714], the viability at 28.5 h, 10 µM came to 74.4%. The figure for `CC(NC(=O)N(Cc1ccc(CN)cc1)Cc1cnc(-c2ccccc2)[nH]1)c1cccc2ccccc12` (centres unmarked) [CBK046149C] is 97.1%. The figure for `CS(=O)(=O)N1CC2(CCN(CCOCc3ccccc3)CC2)c2ccccc21` [CBK115458T] is 96.4%; for `O=C1CC(N2CCN(Cc3ccc4c(c3)OCO4)CC2)C(=O)N1c1ccc(Cl)c(Cl)c1` (centres unmarked) [CBK074549] it is 99.4%; for `Cc1nc(-c2cccnc2)[nH]c(=O)c1CC(=O)N1CCSCC1` [CBK305944] it is 90.7%. To `Cc1cc(C)nc(N2CCC(CC(=O)NCCCc3ccc(F)cc3)CC2)n1` [CBK285995] belongs 83.1%. For the compound `COc1cc(-c2cncc(Nc3ccc4c(c3)OC(F)(F)C(F)(F)O4)n2)cc(OC)c1OC` [CBK065138], the viability at 28.5 h, 10 µM is 94.4%.

As to `CCOC(=O)CSc1nc2ccccc2nc1C(F)(F)F` [CBK107200], the viability at 28.5 h, 10 µM worked out at 92.8%.

Consider `Cc1cccc(C)c1OCC(=O)Nc1ccc(S(=O)(=O)N2CCOCC2)cc1` [CBK266967], for which the viability at 28.5 h, 10 µM was found to be 94.1%. To `Cn1c(=O)n(C)c2cc(S(=O)(=O)ON3C(=O)c4cccc5cc([N+](=O)[O-])cc(c45)C3=O)ccc21` [CBK267566] belongs 91.6%; to `OCCNc1cncc(-c2ccccc2)n1` [CBK065857], 92%; to `O=C(O)/C=C/C(=O)NNC(=O)c1ccccc1O` [CBK261789], 97.4%.

With `Cc1c(C(=O)Nc2nccs2)nnn1-c1ccccc1` [CBK287766], the viability at 28.5 h, 10 µM amounted to 83.9%.

For `OC(COCc1ccc(Cl)cc1)CN1CCN(c2cccc(Cl)c2)CC1` (centres unmarked) [CBK278315C], the viability at 28.5 h, 10 µM came to 87.9%. To `O=C(/C=C/c1ccc2c(c1)OCO2)N1CCCC2(CCN(C(=O)c3ccoc3)C2)C1` (centres unmarked) [CBK131622] belongs 92.3%. Turning to `COc1ccc(CNc2ccc(C3c4ccsc4CCN3C(C)=O)cc2)cc1` (centres unmarked) [CBK286444], the viability at 28.5 h, 10 µM was 102%. The figure for `O=C1NN=C(CSCCO)Oc2ccccc21` [CBK006771] is 88.5%. To `CCOC(=O)N1CCN(C(=O)c2oc3ccccc3c2C)CC1` [CBK023696] belongs 92.4%; to `Cc1cc(CN2CCC(C(=O)c3ccc(F)cc3)CC2)no1` [CBK149121], 89.2%. `O=[N+]([O-])c1ccccc1S(=O)(=O)N1CCN(S(=O)(=O)Cc2ccccc2)CC1` [CBK264230]: the viability at 28.5 h, 10 µM was 96.9%. The figure for `O=C(Nn1cnnc1)c1cccc(C(=O)Nn2cnnc2)c1` [CBK091759] is 99.4%. The figure for `CN(C)c1cccc(-c2cccc(NCC(c3cccnc3)N(C)C)n2)c1` (centres unmarked) [CBK037697] is 117%; for `COc1ccccc1N1CCN(CC(O)COCc2ccc3c(c2)OCO3)CC1` (centres unmarked) [CBK278323C] it is 101%. Take `O=C(NO)Nc1cc(Cl)cc(Cl)c1` [CBK016430]: the viability at 28.5 h, 10 µM was 109%. The figure for `COc1ccc(C(=O)[C@@H]2CCCC[C@H]2N)cc1` [CBK023040C] is 91.6%.

Consider `CC(C)(C)c1csc(NC(=O)C2CC(=O)N(c3cccc(C(F)(F)F)c3)C2)n1` (centres unmarked) [CBK175545], for which the viability at 28.5 h, 10 µM came out at 106%. For the compound `Cc1c(NC(=O)Nc2ccc(Cl)cc2)sc(=S)n1C` [CBK027495], the viability at 28.5 h, 10 µM came to 93.4%. Consider `CCOC(=O)c1ccccc1NC(=O)n1ccc2c(N3CCNCC3)cccc21` [CBK003731C], for which the viability at 28.5 h, 10 µM amounted to 50.8%. Turning to `Cc1cc(COc2nccnc2OC2CCN(Cc3ccc(Cl)cc3)CC2)no1` [CBK082949T], the viability at 28.5 h, 10 µM stood at 85.7%. With `COCCN1CCC(CNC(=O)Nc2cc(C)ccc2F)C1` (centres unmarked) [CBK304631], the viability at 28.5 h, 10 µM is 117%. As for `CCC(NS(=O)(=O)c1ccc(Br)cc1)C(=O)O` (centres unmarked) [CBK264472], the viability at 28.5 h, 10 µM was determined as 97%. To `CC1(C)CC(=O)c2cnc3cc(-c4ccco4)nn3c2C1` [CBK283142] belongs 102%. To `COc1cccc(-n2ncc(-c3cccnc3)n2)c1` [CBK112813] belongs 89.9%. To `CCCN1CCC(NC(=O)c2cccc(S(N)(=O)=O)c2)CC1` [CBK305956] belongs 90.6%; to `COc1ccc(NC(=O)N2CCCCC2c2cccnc2)cc1` (centres unmarked) [CBK293947], 102%. As for `O=C(c1ccc(C#CC2(O)CCCCC2)cc1)N1CCC(C(O)(c2ccccc2)c2ccccc2)CC1` [CBK033758], the viability at 28.5 h, 10 µM is 84.7%. Take `CCOc1ccc(S(=O)(=O)N(C)c2ccc(OCC(=O)O)cc2)cc1` [CBK296119]: the viability at 28.5 h, 10 µM stood at 102%. Regarding `COc1ccc(-n2c(SCC(N)=O)nc3sc4c(c3c2=O)CC(C)(C)OC4)cc1` [CBK263232], the viability at 28.5 h, 10 µM turned out to be 101%. The figure for `CC(C)Oc1ncc(C(=O)N(CCC#N)Cc2ccco2)cc1Cl` [CBK304908] is 91.6%.
